The text below walks through data of ChEMBL document CHEMBL4270560, “Novel curcumin analogue hybrids: Synthesis and anticancer activity” (Eur J Med Chem, 2018).

Holding throughout (type): functional
The subject of assay [1] is SGC-7901. In words: Induction of apoptosis in human SGC7901 cells assessed as early apoptotic cells at 800 nM after 48 hrs by Annexin V-FITC/propidium iodide staining based flow cytometric analysis (reference value: 2.30%).
In assay [2] the test system is SGC-7901. In words: Induction of apoptosis in human SGC7901 cells assessed as late apoptotic cells at 1000 nM after 48 hrs by Annexin V-FITC/propidium iodide staining based flow cytometric analysis (reference value: 1.73 to 2.85%). A general note: In flow cytometry, cells or beads pass a laser one at a time.
Assay [3] deals with SGC-7901. Nature of the assay: Induction of apoptosis in human SGC7901 cells assessed as necrotic cells at 1000 nM after 48 hrs by Annexin V-FITC/propidium iodide staining based flow cytometric analysis (reference value: 0.052 to 0.304%).
Assay [4] has as its system SGC-7901. In words: Induction of apoptosis in human SGC7901 cells assessed as late apoptotic cells at 1200 nM after 48 hrs by Annexin V-FITC/propidium iodide staining based flow cytometric analysis (reference value: 1.73 to 2.85%).
For assay [5], the system named is SGC-7901. In words: Induction of apoptosis in human SGC7901 cells assessed as viable cells at 1000 nM after 48 hrs in presence of NAC by Annexin V-FITC/propidium iodide staining based flow cytometric analysis (reference value: 96%). As to conditions: SGC-7901, 48 h, read-out: Activity.

Regarding `COc1cc(OC)c2c(=O)c(OCCCOc3ccccc3/C=C/C(=O)/C=C/c3ccccn3)c(-c3cc(OC)c(OC)c(OC)c3)oc2c1`, the Activity is recorded as 24.5% in assay [1], 7.92 - 24.2% in assay [2], 0.256 - 1.04% in assay [3] and 20.1 - 24.9% in assay [4]. Besides, the viability at 1 µM in assay [5] was determined as 94.1%.
